US20250152605A1, “METHOD AND DRUG FOR TREATING NEURONAL CEROID LIPOFUSCINOSIS” (priority 2021, published 2025)

Assays:
Cln3 KO mice = experiment: Morris water maze; format: in vivo, mouse; conditions: 7th day test
Protocol: To test the difference in learning and memory abilities of Cln3 KO mice and wild-type mice, and the effect of Compound G on learning and memory abilities of Cln3 KO mice, a Morris water maze was performed, with specific procedures as follows: the mice to be tested were kept in single cages for more than 1 week to adapt to the environment; the maze used in this study was a circular pool with a diameter of 120 cm and a depth of 40 cm; the pool wall is divided into four quadrants including northeast (NE), northwest (NW), southwest (SW) and southeast (SE) with circles, squares, triangles and crosses respectively. The platform was placed at a fixed position in the SW quadrant with a diameter of 11 cm and a height of 18 cm; milky white water containing titanium dioxide was added to the pool, the amount of added water being just short of the platform is suitable; the water temperature was adjusted to about 22° C.; the mouse was gently put into the water from the designated position shown in Table 5, and the movement of the mouse within 60 seconds was recorded through the video equipment. If the mouse found the platform within 60 seconds, its time to find the platform was recorded; if the mouse could not find the platform within 60 seconds, it was guided to the platform and held for 15 seconds.
The mice were removed from the platform, wiped clean with a dry towel and returned to their cages. Each mouse was trained 4 times a day, with a 30-minute interval between each training, for a total of 6 days, and mice that cannot swim were excluded; on the Day 7, the platform in the water was taken out, and then the mice were gently put into the water from the NE direction, and the movement of the mouse within 60 seconds was recorded with a video equipment. The time it took for the mouse to find the platform for the first time and the time the mouse stayed in the SW quadrant were analyzed and counted using Noldus software. In addition, the experimenter manually counted the number of times the mouse crossed the location of the original platform within 60 seconds.
Starting from day 21 on which the Cln3 KO mice were weaned, treatment of Compound G was continuously provided. […]
First, the mice were trained in the water maze for 6 days, and the time it took for them to find the underwater platform was recorded. […] The time that the mice spent reaching the position of the original platform for the first time, the number of shuttles at the position of the original platform and the time stayed in the quadrant of the original platform were recorded, which characterized whether they have learned the position of the underwater platform through the first 6 days of training.

[1] = Drug concentration in mouse brain tissue (UPLC-MS/MS); format: in vivo; conditions: Cln3 KO mice
Protocol: In order to determine whether Compound G can pass through the blood-brain barrier and its drug concentration in the brain tissue of mice, the following experiment was performed: Compound G was dissolved in drinking water at a concentration of 1 mg/mL and fed to mice, and a solvent was added to the drinking water of control mice; mice treated with Compound G were removed at 8 different random time points, and after Avertin anesthesia, their hearts were perfused with 20 mL dPBS to rinse the blood in the mice; non-dosed mice were also perfused in the same manner as blank tissue; whole mouse brain tissue was removed, weighed, snap frozen in liquid nitrogen and ground using Mixer Mill (RETSCH MM400) with a shaking frequency of 26 beats/sec for 5 minutes; a small molecule with similar structural properties to Compound G was prepared in advance as an internal reference (denoted IS) and IS was dissolved in 80% aqueous methanol to 100 ng/ml. […]
After using dPBS to completely perfuse the systemic blood, the mice were euthanized and the brain tissues thereof were taken out. The drug concentrations of Compound G in the mouse brain tissues were measured.

[2] = tested on: KEAP1-knockdown CLN3^Δex7/8 human neurons; experiment: Lysotracker staining of KEAP1-knockdown CLN3^Δex7/8 human neurons; format: cell-based; conditions: added to KEAP1-knockdown CLN3^Δex7/8 human neurons
Protocol: shRNA knockdown experiments of genes such as CLN3 and KEAP1 were conducted in induced neural stem cells and neurons, with specific steps as follows: the neural stem cells were planted into a desired cell culture plate to a cell density of about 50% or the neural stem cells were differentiated into human neurons in the cell culture plate according to experimental requirements; the shRNA lentiviral plasmids of CLN3 and KEAP1 genes and the control lentiviral plasmid expressing non-target sequences were selected from the MISSIOH human shRNA library of Sigma Aldrich, and the sequences were shown in Table 6; Lentiviruses was packaged in 10 cm cell culture plates and virus-containing supernatant was collected by filtration according to the method described above; the supernatant and lentivirus concentrate (40% PEG-8000 and 1.2M sodium chloride dissolved in dPBS solution, pH˜ 7.0) were mixed in a volume ratio of 1:3, and incubated overnight at 4° C. with slow rotation; centrifugation at 13000 g for 30 minutes at 4° C., and the supernatant was discarded, and the pellet was resuspended in 1 mL of fresh cell culture medium and added to the target cells; after 8 hours of infection, the virus was aspirated and fresh cell culture medium was added; 48 hours after infection, 1.5 μg/mL puromycin was added for selection for 72 hours, and the surviving cells were used for subsequent experiments. […]

In the case of `C/C=C1\C(=O)C[C@H]2[C@@H]3CCC4=CC(=O)CC[C@]4(C)[C@H]3CC[C@]12C` [Compound G, (Z)-guggulsterone], the “movement speed of the mice in water” value (Cln3 KO mice) is reported as “no significant effect”, the “number of times they shuttle at the position of the original platform” value (Cln3 KO mice) is reported as “closer to that of the wild-type mice” and the “time spent reaching the position of the original platform for the first time” value (Cln3 KO mice) is reported as “effectively shorten”. The “time stayed in the quadrant of the original platform” value (Cln3 KO mice) was “extended the time stayed in the quadrant of the original platform to a certain extent”, the “average concentration in the mouse brain” value ([1]; 1 mg/mL in drinking water, different time points (n=8)) was 814.74±834.19 ng/g brain tissue and the “penetration of the blood-brain barrier” value ([1]; drinking water) was “could penetrate the blood-brain barrier”. The “Lysotracker average fluorescence intensity” value [2] was “could not further increase”.
